Patent US10787413B2, “Derivatives of curcuminoids and use thereof as an anticancer agent” (CHINA MEDICAL UNIVERSITY, priority 2016, dated 2020)
Read-outs that look alike come from different tables or passages of the source.

Key:
HS-578T = experiment: Cell viability, HS-578T breast cancer cells; format: cell-based; details: Homo sapiens; HS-578T (Triple negative), treated for 24 h
Protocol: (§1) Cell viability was evaluated by measuring the reduction in MTT to yield blue formazan. Cells were cultured in 96-well plates, allowed to attach overnight, and then treated with compounds. After treatment, MTT solution (1 mg/ml) was added to each well, and plates were incubated for another 4 h. Medium were removed, blue formazan was dissolved in DMSO, and the absorbance was read at 570 nm^20.

[1] = Solubility in water or alcohol; format: physicochemical; details: compared with curcumin
MDA-MB-231 cells [2] = experiment: Cell morphology, phase-contrast microscope; format: cell-based, human; details: 10 μM, 24 h
Source text: For morphological observations, cells were visualized and photographed using a phase-contrast microscope equipped with a digital camera (Leica Microsystems, Wetzlar, Germany)^21.

PC3 prostate cancer cell = experiment: MTT cell viability assay, PC3 prostate cancer cell; format: cell-based
Protocol: as §1

T47D = experiment: Cell viability, T47D breast cancer cells; format: cell-based; details: Homo sapiens; T47D (ER+/PR+), treated for 24 h
Protocol: as §1

CDK1 = CDK1 kinase assay on extracts of treated cells; format: cell-based, human; details: 4-12 h of treatment
Protocol: CDK1 kinase activity was analyzed according to the protocol of Medical & Biological Laboratories CDK1 kinase assay kit (MBL International, Nagoya, Japan). In brief; the ability of cell extract prepared from each treatment was measured to phosphorylate its specific substrate, MV Peptide as described previously^23.

[3] = Preliminary acute toxicity assay; details: 21 days observation
Protocol: Normal mice were treated with 21a or 35a by oral route at 500 mg/kg/day for 5 consecutive days, following by 21 days of post-treatment observation. […] Detailed data for their toxicology and safety pharmacology studies will be carried out in the near future.
Female nu/nu mice (5 weeks old) were P.O. with vehicle (propylene glycol, 0.1 ml) or high dose of 21a (250 and 500 mg/kg) and 35a (500 mg/kg) for 5 days followed by observation of behavior and lethargy for 21 days.

MCF-7 = experiment: Cell viability, MCF-7 breast cancer cells; format: cell-based; details: Homo sapiens, MCF7; MCF-7 (ER+/PR+), treated for 24 h
Protocol: as §1

[4] = tested on: Doxorubicin-resistant MDA-MB-231; experiment: Cell viability, Doxorubicin-resistant MDA-MB-231; format: cell-based; details: for IC50: Doxorubicin-resistant MDA-MB-231, treated for 24 h
Protocol: as §1

MDA-MB-231 cells [5] = experiment: Apoptosis analysis (annexin V/propidium iodide); format: cell-based, human; details: 5 μM, 24 and 48 h
Source text: After treatments, cells were harvested and stained with annexin V and propidium iodide using the Annexin V: FITC Apoptosis Detection Kit II (BD Biosciences) and subjected to flow cytometry (FACScalibur; Becton-Dickinson, Mountain View, Calif., USA). The percentages of apoptotic cells were quantified with CellQuest software (Becton-Dickinson)^24.

MDA-MB-453 = experiment: Cell viability, MDA-MB-453 breast cancer cells; format: cell-based; details: Homo sapiens; MDA-MB-453 (Her-2+), treated for 24 h
Protocol: as §1

MDA-MB-231 cells [6] = experiment: Western blot analysis of treated cells; format: cell-based, human
Protocol: After treatments, cells were harvested, washed, and suspended in PBS containing proteinase inhibitors and then disrupted with sonication. Protein concentrations were estimated using the Protein Assay kit from Bio-Rad (Hercules, Calif., USA). Samples were resolved with SDS-PAGE and transferred to a polyvinylidene difluoride membrane (EMD Millipore). Each membrane was blocked in 5% (w/v) non-fat milk in Tris-buffered saline with 0.1% (v/v) Tween-20 for 1 h followed by incubation with specific primary antibodies at 4° C. overnight. Each membrane was then incubated with horseradish peroxidase-conjugated secondary antibodies at room temperature for 1 h. Protein signals were detected with the Immobilon Western Chemiluminescent HRP Substrate (EMD Millipore) and visualized using the LAS-4000 imaging system (Fuji, Tokyo, Japan)^25.

[7] = tested on: various breast cancer cell lines; experiment: Cell viability, various breast cancer cell lines (21a compared with curcumin); format: cell-based; details: TNBC cells
Protocol: as §1

MDA-MB-231 cells [8] = experiment: Immunofluorescence staining LC3B and p62; format: cell-based, human; details: 5 μM and 10 μM, 24 h
Protocol: Cells were grown on sterile coverslips placed in a 6-well plate. After treatments, cells were fixed with 4% (w/v) paraformaldehyde and permeabilized with 0.2% (v/v) Triton X-100 in PBS. After blocking with 2% (w/v) bovine serum albumin in PBS, […] was detected using anti-LC3B and anti-p62 antibody followed by reaction with FITC or PE-conjugated secondary antibody (BD Biosciences). Coverslips were mounted on glass slides with Prolong Gold Antifade Reagent containing DAPI (Invitrogen), and fluorescence images were taken on a Leica Microsystems TCS SP2 Confocal Spectral microscope^26.

SKBR-3 = experiment: Cell viability, SKBR-3 breast cancer cells; format: cell-based; details: Homo sapiens, SK-BR-3; SKBR-3 (Her-2+), treated for 24 h
Protocol: as §1

BT-474 = experiment: Cell viability, BT-474 breast cancer cells; format: cell-based; details: Homo sapiens; BT-474 (Her-2+), treated for 24 h
Protocol: as §1

[9] = Stability of 21a in the culture media; format: physicochemical; details: media after 72 h treatment analyzed for curcumin
Protocol: Besides, the stability of 21a in the culture media was tested.

[10] = tested on: MDA-MB-231 breast cancer cell; experiment: MTT cell viability assay, MDA-MB-231 breast cancer cell; format: cell-based, human; details: for IC50: Homo sapiens
Protocol: Cell viability was evaluated by measuring the reduction in MTT to yield blue formazan. Cells were cultured in 96-well plates, allowed to attach overnight, and then treated with compounds. After treatment, MTT solution (1 mg/ml) was added to each well, and plates were incubated for another 4 h.

Protocol for MDA-MB-231 Xenograft: Female nu/nu mice (5 weeks old) were from National Laboratory Animal Center, Taipei, Taiwan. […] MDA-MB-231 breast cancer cells (5×10^6 cells per mouse) were suspended in 0.1 ml of Matrigel solution (50% (v/v) Matrigel in PBS) and inoculated into the mammary fat pads of the mice. […] Compounds was administered P.O. once every day for 32 days. Tumor size and mouse body weight were measured once every 4 days, and tumor volume (mm3) was calculated using the equation: length×(width)^2×0.5. At the end of experiments, mice were sacrificed and tumor nodules were dissected and weighed.

COc1cc(/C=C/C(=O)/C=C(O)/C=C/c2ccc(OC(=O)C(C)(CO)CO)c(OC)c2)ccc1OC(=O)C(C)(CO)CO [Compound 21a, ((1E,3Z,6E)-3-Hydroxy-5-oxohepta-1,3,6-triene-1,7-diyl)bis(2-methoxy-4,1-phenylene) bis(3-hydroxy-2-(hydroxymethyl)-2-methylpropenoate)]
IC50 (HS-578T): 7.96 ± 0.27 µM | solubility in either water or alcohol [1]: better than that of curcumin | cell morphology (MDA-MB-231 cells [2]): caused breast cancer cell apoptosis and autophagy | IC50 (PC3 prostate cancer cell; PC-3, treated 24 hours, read-out: IC50 24 hours): 7.8 ± 0.03 µM | IC50 (PC3 prostate cancer cell; PC-3, treated 48 hours, read-out: IC50 48 hours): 6 ± 0.35 µM | IC50 (PC3 prostate cancer cell; PC-3, treated 72 hours, read-out: IC50 72 hours): 3.9 ± 0.08 µM | IC50 (T47D): 19.3 ± 1.71 µM | CDK1 activity (CDK1): significant decrease | behavior and death at end of experiment ([3]; P.O. 21a 250 and 500 mg/kg, 35a 500 mg/kg for 5 days): no behavior alternation and death | body weight and behavior change ([3]; oral 500 mg/kg/day for 5 consecutive days, vs untreated control): no significant difference | IC50 (MCF-7): 6.13 ± 0.51 µM | times greater inhibitory activity than curcumin ([4]; Doxorubicin-resistant MDA-MB-231): 10 times | IC50 [4]: 6.52 ± 1.7 µM | IC50 ([4]; Homo sapiens, MDA-MB-231, 24 h): 6.5 µM | population of annexin V-positive cells (MDA-MB-231 cells [5]): significantly increased | IC50 (MDA-MB-453): 3.97 ± 0.27 µM | levels of Cyclin B and CDK 1 (MDA-MB-231 cells [6]; 5 μM, 0-24 h): down-regulated | levels of Bcl-2, Bcl-x (MDA-MB-231 cells [6]; 10 μM, 0-24 h): downregulated | levels of CHOP, Bip (MDA-MB-231 cells [6]; 10 μM, 0-24 h): up-regulated | levels of DR5, FADD, Bax (MDA-MB-231 cells [6]; 10 μM, 0-24 h): up-regulated | levels of Ero1, PD1, PERK1, Calnexin, IRE1α (MDA-MB-231 cells [6]; 10 μM, 0-24 h): downregulated | levels of Atg5, Atg7, Atg12, Beclin, p62 and LC3B (MDA-MB-231 cells [6]; 10 μM, 4-24 h, time-dependent): induced | times greater inhibitory activity than curcumin [7]: 3.4-7.4 times | LC3B-positive and p62-positive cells (MDA-MB-231 cells [8]): significantly increased | tumor weight smaller than that of the control group (MDA-MB-231 Xenograft; 21a PO combined with Doxorubicin IP 1 mg/kg/day): 80% | reduction of MDA-MB-231 tumor weight compared with control group (MDA-MB-231 Xenograft; 21a alone, PO (50 mg/kg/day)): 60% | effect of combined use on antitumor activity of Doxorubicin (MDA-MB-231 Xenograft; 21a with Doxorubicin): enhance the antitumor activity of Doxorubicin | IC50 (SKBR-3): 6.39 ± 0.43 µM | IC50 (BT-474): 6.15 ± 0.87 µM | stability in the culture media [9]: stable | viability of MDA-MB-231 cells ([10]; 0, 1, 3, 5 and 10 μM, 24 h, concentration-dependent): significantly reduced | combination effect with Doxorubicin ([10]; 21a in combination with Doxorubicin, MDA-MB-231 cells): Synergistic anticancer effect | IC50 ([10]; MDA-MB-231, treated 24 hours, read-out: IC50 24 hours): 5.37 ± 1.22 µM | IC50 ([10]; MDA-MB-231, treated 48 hours, read-out: IC50 48 hours): 3.06 ± 0.18 µM | IC50 ([10]; MDA-MB-231, treated 72 hours, read-out: IC50 72 hours): 2.67 µM | times more potent than curcumin (IC50) ([10]; MDA-MB-231, 72 h treatment, curcumin IC50 16.23 μM): 6.2 times
